Data from the NIST ThermoML archive (doi:10.1016/j.jct.2013.12.002).
± gives the expanded uncertainty stated by the source.

Test: osmotic coefficient (dimensionless); mn = molality of the nth substance listed, in mol/kg
Conditions: 323.15 K, 101 kPa, Liquid, Knauer K-7000 vapour pressure osmometer

With `CCCC[N+]1(C)CCCC1.N#CN=C=[N-]` [1-butyl-1-methylpyrrolidinium dicyanamide] + CC(C)O the osmotic coefficient (m1 = 0.0709) was 0.942 ± 0.013, the osmotic coefficient (m1 = 0.1087) was 0.878 ± 0.013 and the osmotic coefficient (m1 = 0.1972) was 0.827 ± 0.014. For the same molecule, the osmotic coefficient (m1 = 0.2934) was 0.778 ± 0.014, the osmotic coefficient (m1 = 0.3976) was 0.75 ± 0.015 and the osmotic coefficient (m1 = 0.4909) was 0.722 ± 0.016. It also gave an osmotic coefficient (m1 = 0.7769) of 0.685 ± 0.016, an osmotic coefficient (m1 = 1.175) of 0.645 ± 0.017 and an osmotic coefficient (m1 = 1.595) of 0.631 ± 0.018. It also gave an osmotic coefficient (m1 = 1.998) of 0.612 ± 0.018, an osmotic coefficient (m1 = 2.419) of 0.608 ± 0.018 and an osmotic coefficient (m1 = 2.821) of 0.595 ± 0.019. For the same molecule, the osmotic coefficient (m1 = 3.296) was 0.59 ± 0.019.

For `CCCC[N+]1(C)CCCC1.N#CN=C=[N-]` [1-butyl-1-methylpyrrolidinium dicyanamide] + CCCCCO, the osmotic coefficient (m1 = 0.0446) was 0.63 ± 0.018, the osmotic coefficient (m1 = 0.0818) was 0.59 ± 0.019 and the osmotic coefficient (m1 = 0.1078) was 0.558 ± 0.02. For the same molecule, the osmotic coefficient (m1 = 0.1865) was 0.512 ± 0.021, the osmotic coefficient (m1 = 0.299) was 0.491 ± 0.022 and the osmotic coefficient (m1 = 0.3928) was 0.477 ± 0.022. For the same molecule, the osmotic coefficient (m1 = 0.5108) was 0.467 ± 0.022, the osmotic coefficient (m1 = 0.8086) was 0.453 ± 0.023 and the osmotic coefficient (m1 = 1.191) was 0.444 ± 0.023. It also gave an osmotic coefficient (m1 = 1.598) of 0.435 ± 0.023, an osmotic coefficient (m1 = 2.004) of 0.425 ± 0.024 and an osmotic coefficient (m1 = 2.406) of 0.417 ± 0.024. For the same molecule, the osmotic coefficient (m1 = 2.798) was 0.409 ± 0.024 and the osmotic coefficient (m1 = 3.063) was 0.404 ± 0.024.

With `CCCC[N+]1(C)CCCC1.N#CN=C=[N-]` [1-butyl-1-methylpyrrolidinium dicyanamide] + CCC(C)O the osmotic coefficient (m1 = 0.0878) was 0.793 ± 0.014, the osmotic coefficient (m1 = 0.1149) was 0.755 ± 0.015 and the osmotic coefficient (m1 = 0.1863) was 0.705 ± 0.016. The osmotic coefficient (m1 = 0.2981) was 0.641 ± 0.017, the osmotic coefficient (m1 = 0.4092) was 0.621 ± 0.018 and the osmotic coefficient (m1 = 0.5397) was 0.591 ± 0.019. It also gave an osmotic coefficient (m1 = 0.8291) of 0.58 ± 0.019, an osmotic coefficient (m1 = 1.213) of 0.555 ± 0.02 and an osmotic coefficient (m1 = 1.611) of 0.556 ± 0.02. It also gave an osmotic coefficient (m1 = 2.019) of 0.548 ± 0.02, an osmotic coefficient (m1 = 2.4) of 0.539 ± 0.02 and an osmotic coefficient (m1 = 2.776) of 0.533 ± 0.02. For the same molecule, the osmotic coefficient (m1 = 3.307) was 0.523 ± 0.021.

`CCCC[N+]1(C)CCCC1.N#CN=C=[N-]` [1-butyl-1-methylpyrrolidinium dicyanamide] + CCCCO gave an osmotic coefficient (m1 = 0.0577) of 0.734 ± 0.017, an osmotic coefficient (m1 = 0.0761) of 0.68 ± 0.017 and an osmotic coefficient (m1 = 0.1089) of 0.665 ± 0.017. It also gave an osmotic coefficient (m1 = 0.2006) of 0.624 ± 0.018, an osmotic coefficient (m1 = 0.296) of 0.602 ± 0.019 and an osmotic coefficient (m1 = 0.4011) of 0.587 ± 0.019. For the same molecule, the osmotic coefficient (m1 = 0.4745) was 0.581 ± 0.019, the osmotic coefficient (m1 = 0.8117) was 0.57 ± 0.019 and the osmotic coefficient (m1 = 1.214) was 0.551 ± 0.02. For the same molecule, the osmotic coefficient (m1 = 1.617) was 0.541 ± 0.02, the osmotic coefficient (m1 = 2.033) was 0.532 ± 0.02 and the osmotic coefficient (m1 = 2.43) was 0.52 ± 0.021. For the same molecule, the osmotic coefficient (m1 = 2.845) was 0.516 ± 0.021 and the osmotic coefficient (m1 = 3.308) was 0.508 ± 0.021.

With `CCCC[N+]1(C)CCCC1.N#CN=C=[N-]` [1-butyl-1-methylpyrrolidinium dicyanamide] + CCCO the osmotic coefficient (m1 = 0.0836) was 0.9 ± 0.013, the osmotic coefficient (m1 = 0.119) was 0.858 ± 0.013 and the osmotic coefficient (m1 = 0.2054) was 0.8 ± 0.014. It also gave an osmotic coefficient (m1 = 0.2962) of 0.743 ± 0.015, an osmotic coefficient (m1 = 0.4029) of 0.71 ± 0.016 and an osmotic coefficient (m1 = 0.502) of 0.689 ± 0.016. The osmotic coefficient (m1 = 0.7791) was 0.653 ± 0.017, the osmotic coefficient (m1 = 1.182) was 0.614 ± 0.018 and the osmotic coefficient (m1 = 1.61) was 0.587 ± 0.019. The osmotic coefficient (m1 = 2) was 0.576 ± 0.019, the osmotic coefficient (m1 = 2.442) was 0.565 ± 0.02 and the osmotic coefficient (m1 = 2.865) was 0.56 ± 0.02.
